Reference: patent US20100105948A1, “HOP ALPHA ACID OR HOP OIL CONTENT ENHANCER” (COSMO OIL CO., LTD., priority 2007, published 2010)

What was measured:
[1] = system: hop (high alpha acid type Marynka species); assay: Foliar treatment of hop seedlings (Example 2): alpha acid content; yield; format: in vivo; conditions: for Alpha acid (%): Marynka; for (Reference) Yield (ratio to no treatment %) / Alpha acid (ratio to no treatment): no treatment = 100
Text: Seedlings of a high alpha acid type Marynka species cultivated by conventional method in Poland in 2006 were subjected to foliar treatment at timing shown in Table 4 with an aqueous ALA hydrochloride solution the same as in Example 1.

[2] = system: hop (Zatecky poloskory cervenak); assay: Foliar treatment of hop seedlings (Example 1): contents of alpha acid, beta acid, hop oils; dry weight; format: in vivo; conditions: for (Reference) Dry weight / Beta acid (%) / Hop oil myrcene / Hop oil pharnesene / Alpha acid (%) / (Reference) Dry weight, ratio to no treatment / Alpha acid (ratio to no treatment) / Beta acid (ratio to no treatment) / Hop oil myrcene (ratio to no treatment) / Hop oil pharnesene (ratio to no treatment): foliar treatment 5 times; for Alpha acid (%): Zatecky poloskory cervenak; for (Reference) Dry weight, ratio to no treatment / Alpha acid (ratio to no treatment) / Beta acid (ratio to no treatment) / Hop oil myrcene (ratio to no treatment) / Hop oil pharnesene (ratio to no treatment): no treatment = 100
Text: Seedlings of Zatecky poloskory cervenak cultivated by conventional method in Slovakia in 2006 were subjected to foliar treatment at timing shown in Table 1 with an aqueous 5-aminolevulinic acid (ALA) hydrochloride solution shown in Table 2.

[3] = Treatment 1 (basal fertilizer 30% up): 0.05%, 1000 L/ha, 6 times
[4] = Treatment 1: 0.05%, 1000 L/ha, 6 times
[5] = Treatment 2: 0.05%, 1000, 2000, 3000 L/ha at 1st, 3rd, 5th time

NCC(=O)CCC(=O)O [ALA, 5-aminolevulinic acid]
content of an alpha acid ([1]; ALA treatment versus no treatment, Table 5, in words): remarkably increased | (Reference) Yield (kg/ha) [1, 3]: 1610 kg/ha | Alpha acid (%) [1, 3]: 6.98% | (Reference) Yield (ratio to no treatment %) [1, 3]: (104) % | Alpha acid (ratio to no treatment) [1, 3]: (104) | (Reference) Yield (kg/ha) [1, 4]: 1609 kg/ha | Alpha acid (%) [1, 4]: 6.82% | (Reference) Yield (ratio to no treatment %) [1, 4]: (104) % | Alpha acid (ratio to no treatment) [1, 4]: (102) | (Reference) Yield (kg/ha) [1, 5]: 1610 kg/ha | Alpha acid (%) [1, 5]: 6.95% | (Reference) Yield (ratio to no treatment %) [1, 5]: (104) % | Alpha acid (ratio to no treatment) [1, 5]: (104) | contents of an alpha acid, a beta acid, and hop oils ([2]; ALA treatment versus no treatment, Table 3, in words): remarkably increased | (Reference) Dry weight ([2]; 0.02%, 2500 L/ha): 1.76 t/ha | Beta acid (%) ([2]; 0.02%, 2500 L/ha): 4.62% | Hop oil myrcene ([2]; 0.02%, 2500 L/ha): 51.6 | Hop oil pharnesene ([2]; 0.02%, 2500 L/ha): 19.9 | Alpha acid (%) ([2]; 0.02%, 2500 L/ha): 3.26% | (Reference) Dry weight, ratio to no treatment ([2]; 0.02%, 2500 L/ha): 125% | Alpha acid (ratio to no treatment) ([2]; 0.02%, 2500 L/ha): 127 | Beta acid (ratio to no treatment) ([2]; 0.02%, 2500 L/ha): 105 | Hop oil myrcene (ratio to no treatment) ([2]; 0.02%, 2500 L/ha): 149 | Hop oil pharnesene (ratio to no treatment) ([2]; 0.02%, 2500 L/ha): 121 | (Reference) Dry weight ([2]; 0.1%, 500 L/ha): 1.44 t/ha | Beta acid (%) ([2]; 0.1%, 500 L/ha): 4.95% | Hop oil myrcene ([2]; 0.1%, 500 L/ha): 57.0 | Hop oil pharnesene ([2]; 0.1%, 500 L/ha): 17.6 | Alpha acid (%) ([2]; 0.1%, 500 L/ha): 3.11% | (Reference) Dry weight, ratio to no treatment ([2]; 0.1%, 500 L/ha): 103% | Alpha acid (ratio to no treatment) ([2]; 0.1%, 500 L/ha): 121 | Beta acid (ratio to no treatment) ([2]; 0.1%, 500 L/ha): 113 | Hop oil myrcene (ratio to no treatment) ([2]; 0.1%, 500 L/ha): 164 | Hop oil pharnesene (ratio to no treatment) ([2]; 0.1%, 500 L/ha): 107
